Laboratory results: patent US4753928A, “Process for obtaining sexual products from mammals suitable for natural or artificial fertilization” (INNOFINANCE Altalanos Innovacios Pengintezet, priority 1985, dated 1988)
Where “and” joins values, the source holds several entries; their conditions need not be identical. Identical values can stand only once. Where a SMILES comes first, the peptide text is derived from it. [ ]: non-standard residue; d: D form. pGlu = O=C1CC[C@@H](C(=O)O)N1

How the values were obtained:
[1] = test system: male orang-utan; experiment: Treating aspermia caused by non-natural keeping in orang-utan; format: in vivo; settings: 47th day
Excerpt: A 18-year old, male orang-utan of a weight of ca. […] and belonging to Zoo came into captivity in its infancy. Till the treatment it had three owners. […] It has been living in its present location for the past 11 years, it had neither a companion of his own kind nor a mate. […] The Zoo has been contacted that in case the animal is of Bornean Sub-species and fertile, it would be purchased. […] A factor questioning fertility in the case-history was the absence of aggressiveness typical of the male primates and the ceasing of regular masturbation during hospitalization 5-6 years before. Sperm sample was taken from the animal under narcosis, using electrical means. In the ejaculate secretion of the side gonads was exclusively found, in three parts 1--1 droplet, altogether a quantity of 0.1 ml.
Thereafter the animal was treated twice weekly with a dose of 100 μg D-Phe^6, Gln^8, DesGly^10 -GnRH ethylamide, i.e. similarly to the method used in Example 11. During treatment movement of the animal became more live and active. This, however, could not be attributed to the growth of libido, since it could have been caused by the fear from firing airgun injector. Treatment was finished on the 47th day following the first shot and ejaculate was taken twice under renewed narcosis and one hour interval; in this way altogether 3.2 ml of sperms were obtained. Density of sperm was 3, motility 35%. Amount of degenerated sperms reached 20%, practically made up of entirely young development forms (neck and middle part plasma droplets).

[2] = test system: female lambs; experiment: Inducing super-ovulation in infant sheep; format: in vivo; settings: 10 μg twice daily 5 days i.m., 70 μg on 6th day; 50-day old lambs
Experimental: 10 50-day old female lambs were administered each intramuscularly twice daily for 5 days 10 μg doses each of D-Phe^6, Gln^8, desGly^10 -GnRH ethylamide. […] Evaluation of treated and untreated control animals was carried out with the aid of laparoscopy. The results were similar to those outlined in Examples 1 to 4.

[3] = test system: female wild cats; experiment: Cancelling seasonal unoestrus in adult wild cat; format: in vivo, Felis silvestris; settings: after 4 days; i.m. 100 μg then 500 μg two hours later, repeated after 48 hours
Experimental: 2 female wild cats from Zoo, with an average weight of 6 kg and having under normal conditions a cycle between February and March, were treated with D-Phe^6, Gln^8, desGly^10 -GnRH ethyl-amide. Before treatments began, abdominal cavity was opened under narcosis in order to see the condition of both ovaries. After sewing up the abdomen, animals were treated every second day, four times in total through intramuscular injection of the active ingredient diluted in normal saline solution. A two-hour interal was kept between the first and second injection; the first dose was 100 μg, the second one 500 μg. This was followed after 48 hours by the third dose of 100 μg, then two hours later by the fourth dose of 500 μg. On the 0., 2., 4. and 8th day of the treatment abdomen was opened under narcosis and changes in condition of the ovaries were visually evaluated. After treatment both ovaries were removed, fixed and their hystological evaluation was carried out.
On the 0. day of the treatment on left side ovary of both animals 3-4 supposed secondary follicles and 1 degenerated old corpus luteum, while on the right side ovary 5-6 supposed secondary follicles could be seen. […]

[4] = test system: intact ovaries in organ culture; experiment: Production of ova in cattle in vitro from ovary organ culture; format: cell-based; settings: 10^-9 -10^-8 g/ml; spontaneous ovulations and punctured ova
Experimental: Cattle in slaughter-house was stunned and bled, after which intact ovaries were removed within 30-55 minutes. Then in laboratory conditions they were placed in […]. To this culture liquid D-Phe^6, Gln^8, desGly^10 -GnRH ethyl-amide was given in a concentration of 10^-9 -10^-8 g/ml. Ovary stock took 16 to 43 hours to ovulate in organ culture. Out of the spontaneous ovulations of in vitro ovaries and from ova obtained with puncturing 85% were capable to continue meiosis (reductive cell division) and to be successfully fertilized in vitro by tractable sperms of cattle.

[5] = test system: subordinate male chimpanzees; experiment: Treating physiological oligospermia of chimpanzee; format: in vivo
Experimental: In our case, apart from sperm obtained from the dominant males, that was stored in sperm bank, we had to have expressly, for the purpose of insemination, sperm from the 4 subordinate males (all sexually mature). Before the treatment began, all animals were ejaculated under narcosis through electric shock method. Density and motility of the ejaculate was evaluated under microscope, then it was put under deep freeze probe (-196° C.). […] Thereafter male chimpanzees weighing 60 to 90 kilograms were administered intramuscularly 100 μg of D-Phe^6, Gln^8, desGly^10 -GnRH ethylamide diluted in 1 ml of normal saline solution using compressed air injection technique. […] Qualitative and quantitative characteristics of the ejaculates were similar to those obtained from the dominant male and to values published in technical literature.
After diluting the ejaculate in a 1:1 ratio, deep-freeze test was positive and the 60% motility decreased to only 45%. Sperms of this quality either fresh or in deep freeze are entirely suitable for the purposes of insemination.

[6] = test system: infant calves; experiment: Inducing super-ovulation in infant cattle; format: in vivo
Experimental: 8 65-old day infant calves were treated for 8 days, three times daily, with 2 μg of D-Phe^6, Gln^8, desGly^10 -GnRH ethylamide each. After a day of rest, on the 10th day 100 μg active ingredient was administered each intramuscularly. Following the last injection, ovaries from both sides were removed; generally 5-11 developed Graf-follicles were registered in each ovary. 50% of the follicles were already past the stage when tight to the touch, i.e. they were follicles just prior to ovulation.

[7] = test system: Bengalian tiger; experiment: Stimulating normospermia to hyperspermia in Bengalian tiger; format: in vivo
Experimental: A 8-year old Bengalian tiger of a weight of 200 kg belonging to Zoo copulated regularly, its mate becoming pregnant regularly for years. With this knowledge, under narcosis and in the mating season sperm sample was taken electrically and it was established that the sample density reached 3, motility was 30% and quantity of ejaculate amounted to 0.2 ml. […] Deep freezing of such minute quantity of ejaculate, however, is for technical reasons not possible. In order to protect the animal and to avoid liver damage, narcosis can be repeated every four days at the most and kept on for 4-5 hours. Collecting of sperms this way is unaccomplishable. In our process the male was separated from the female and was treated daily for 12 days with 10 μg each of D-Phe^6, Gln^8, DesGly^10 -GnRH ethyl-amide which was diluted in 1 ml of normal saline solution and administered intramuscularly, using compressed air injection technique. On the 12th day, through electrical means the animal was ejaculated under narcosis twice with an hour time interval; in this way 1 ml and 0.8 ml of sperms were obtained. The two samples were combined and examined; a density of 4 was established, motility being 70%. Sperm samples were deep frozen and 21 doses suitable for artificial fertilization were prepared.

[8] = test system: ovary of domestic cat kittens; experiment: Stimulating function of ovary in domestic cat (D-Phe6,Trp7,Leu8-GnRH); format: in vivo; settings: 100 μg i.m. every second day, three times; 45 days old kittens
Experimental: 5 kittens each weighing 0.3 kg and being 45 days old were treated with D-Phe^6, Trp^7, Leu^8 -GnRH analogue in such a way that prior to treatments the left side ovary was removed under narcosis. Then the […] were treated every second day, three times in all with doses of 100 μg each of the active ingredient diluted in normal saline solution administered intramuscularly. After treatment the remaining right side ovaries were removed, examined visually, then, after fixing, hystological examination was carried out.
Ovaries removed prior to treatment were quite homogeneous, butter-yellow in colour, growing follicle could not be detected in them either visually or hystologically. Following treatment 7-8 corpora haemorrhagica and several (not countable) growing follicles were found.

[9] = test system: Siberian tiger male; experiment: Treating Siberian tiger infertile owing to degenerated spermatogeny; format: in vivo
Excerpt: A 8-year old Siberian tiger male of 120 kg and belonging to Zoo has lived with its mate for three years. Regular copulations took place on oestrus of the female, but no offspring was produced in any year. The possiblity that the female was at fault had to be excluded because previously she had pregnancy from an other male and the young ones born were reared as well. From the male in question through electrical means ejaculate was obtained under narcosis and it was established that it was very thin, 4-5 degenerate, vibrating sperms could be seen in each field of vision. Forms of degeneration were characteristic of the younger phases of spermiogenesis. Thereafter the animal was treated oncy weekly intramuscularly with a 100 μg dose of D-Phe^6, Trp^7, Leu^8 -GnRH diluted in normal saline solution of 1 ml, using the compressed air injection technique. The male was kept with its mate and they copulated regularly during the treatments. […] Calculating from the time of birth, fertile copulation ensued 40-50 days following the first treatment.

## CCNC(=O)[C@@H]1CCCN1C(=O)[C@H](CCC(N)=O)NC(=O)[C@H](CC(C)C)NC(=O)[C@@H](Cc1ccccc1)NC(=O)[C@H](Cc1ccc(O)cc1)NC(=O)[C@H](CO)NC(=O)[C@H](Cc1c[nH]c2ccccc12)NC(=O)[C@H](Cc1c[nH]cn1)NC(=O)[C@@H]1CCC(=O)N1 [D-Phe^6, Gln^8, desGly^10 -GnRH ethylamide] ([pGlu]HWSY[dF]LQP-NHEt)
[1]
  degenerated sperms: 20%
  density of sperm: 3
  sperm motility: 35%
[1]; 100 μg twice weekly, two ejaculations
  sperm volume obtained altogether: 3.2 mL
[2]
  ovulations in each animal: 3-9
[3]
  development of secondary follicles: all secondary follicles turned into Graf-follicles ovulated
[4]
  ova capable to continue meiosis and to be fertilized in vitro: 85%
[5]; 4 weeks after first treatment
  motility of ejaculate after deep freeze test: less than 10%
[5]; 4 weeks after first treatment, 100 μg i.m.
  young sperm formations in ejaculate: 40-60%
[5]; 60 days after first treatment
  defective sperms: below 30%
  sperm motility: exceeded 60%
[5]; 60 days, ejaculate diluted 1:1
  motility after deep-freeze test: 45%
[6]; 2 μg three times daily 8 days, 100 μg i.m. on 10th day, 65-day old calves
  developed Graf-follicles in each ovary: 5-11
[6]; same treatment
  follicles just prior to ovulation: 50%
[7]; 12th day
  density of combined sample: 4
[7]; 12th day, combined sample
  sperm motility: 70%
[7]; 12th day, 10 μg daily i.m. for 12 days, two ejaculations one hour apart, 0.2 ml before treatment, Gln^8, DesGly^10 -GnRH ethyl-amide
  sperm volume obtained per ejaculation: 1 mL and 0.8 mL
[7]; after deep freezing
  motility of remelting sperms: 60%
[7]; deep frozen samples
  doses suitable for artificial fertilization prepared: 21

## CC(C)C[C@H](NC(=O)[C@H](Cc1c[nH]c2ccccc12)NC(=O)[C@@H](Cc1ccccc1)NC(=O)[C@H](Cc1ccc(O)cc1)NC(=O)[C@H](CO)NC(=O)[C@H](Cc1c[nH]c2ccccc12)NC(=O)[C@H](Cc1c[nH]cn1)NC(=O)[C@@H]1CCC(=O)N1)C(=O)N1CCC[C@H]1C(=O)NCC(N)=O [D-Phe^6, Trp^7, Leu^8 -GnRH] ([pGlu]HWSY[dF]WLPG-NH2)
[8]
  corpora haemorrhagica on remaining ovary: 7-8
[9]; 100 μg once weekly i.m.
  pregnancy of mate / offspring: The female became pregnant, producing three healthy offsprings
[9]; calculated from time of birth
  time of fertile copulation following the first treatment: 40 to 50 days
